# Experimental data reported in patent US20100055078A1, “METHODS OF MAKING A TRANSPLANTABLE BONE REPAIR SYSTEM USING MULTIPOTENT STEM CELLS” (The Government of the U.S.A, as represented by the …, priority 2008, published 2010).
# What was measured:
# Type in all cases: cell-based
# human MSCs = assay: Cell migration and growth in the center of a pre-treated collagen sponge; set-up: key to Cell Growth in Sponge: One positive (+) indicates low cell number visible in the field; two positives (++) indicates a thin layer of cells visible in the field; three positives (+++) indicates many cells visible in the field
# MC3T3-E1 osteoblasts = assay: [3H]-thymidine incorporation into DNA in wounded mineralized cell layers (in vitro fracture model)
# Method: (§1) Cell culture: Cloned MC3T3-E1 osteoblasts (Kodama et al., J. Cell. Physiol. 112:89-95, 1992) were maintained in alpha MEM medium (Catalog No. MT15012CV Fisher Scientific, Pittsburgh, Pa.) containing 10% fetal bovine serum (FBS), 1% antibiotic solution and 1% glutamine solution and subcultured every 3 to 4 days. The cells were subcultured by incubating with trypsin for five minutes and resuspending at a concentration of 3×10^5 cells/ml. For experiments, cells were grown in the same medium as above, using multiwell plates (35 mm for microscopy and 22 mm for thymidine uptake studies). Each well contained a round 12 mm glass cover slip. Cultures for microscopy contained a 22 mm diameter coverslip with a 12 mm coverslip on top. After three days, the cells reached confluence and differentiation medium (DM) was added. DM was alpha MEM medium containing 10% FBS, 1% antibiotic solution and 1% glutamine solution, supplemented with ascorbic acid (50 μg/ml) and β-glycerol phosphate (10 mM) to induce mineralization. The cultures were then incubated for 9 more days. Microscopic examination was done at this time, using Von Kossa stain to confirm mineralization of the cultures. A critical defect in the mineralized cell layers was created by removing the 12 mm coverslips under sterile conditions and then incubating the cultures for an additional 24 hours in DM containing 4% FBS with IGF-1 (20 ng/ml), FGF-2 (0.2 ng/ml), PDGF (3 ng/ml), TGFβ (2 ng/ml) or PGE2 (2 μg/ml). At least triplicate independent biological samples in multiple experiments were carried out for data collection.
# Tritiated thymidine incorporation into DNA: At the conclusion of the 24 hour incubation, the culture medium was removed and the cells were incubated for 15 minutes at 37° C. in 1 ml PBS containing tritiated thymidine (4 μCi/ml). Following this incubation, the PBS was removed and the cells washed 3 times with ice cold trichloroacetic acid (TCA) followed by ice cold ethanol and allowed to air dry. Then 1 ml of sarkosyl lysis buffer ([…] containing 1% sarkosyl) was added to each well; all the cells were solubilized after 30 minutes. Finally, after mixing the resulting solution with a pipette, radioactivity was counted in a scintillation counter and protein content was measured. The data was calculated and expressed as disintegrations per minute per microgram protein.
# MC3T3-E1 cell monolayers = assay: Cell re-growth and migration into the coverslip defect, rhodamine phalloidin microscopy
# Method: as §1, with “([…]).” for “(2 ng/ml) or PGE2 (2 μg/ml).”
# Microscopy: At the conclusion of the 24 hour incubation, the remaining 22 mm coverslip containing the regenerating area of the culture was removed. The specimen was rinsed five times in room temperature phosphate buffered saline (PBS) and fixed. Cells were visualized with the F-actin probe rhodamine phalloidin (Invitrogen, Carlsbad, Calif.). After rinsing in distilled water and air drying the samples, the coverslips were mounted on microscope slides using FLUOROMOUNT™ and the cells were examined and photographed. Photomicrographs were made on a Zeiss Axioskop epi-fluorescent microscope using a 40× objective. Migration was measured on the photomicrographs from the site of the wound to the migrating edge using a metric ruler (n=3) for each measurement.
substance,measurement,setting,value
fibroblast growth factor-2 [FGF-2],Cell Growth in Sponge,"human MSCs; center of collagen sponge, after four days, 100 ng/ml FGF-2, 0.1 mg/ml fibrinogen, HAHp 0.3% w/w heparin with 1% hyaluronic acid",+
same,"cells observed in the collagen sponge, in words",human MSCs; pre-treated collagen sponge,Some cells were observed
same,increase of thymidine incorporation,"MC3T3-E1 osteoblasts; wounded MC3T3-E1, 24 hour treatment, FGF-2 0.2 ng/ml, TGFβ 2 ng/ml, PGE2",more than 4.5 fold
same,"change in DNA synthesis (thymidine incorporation), in words","MC3T3-E1 osteoblasts; wounded MC3T3-E1, within twenty-four hours of treatment",significantly enhanced
same,"re-growth of cells into the defect, in words",MC3T3-E1 cell monolayers; 24 hours after injury,showed cellular proliferation at the interface of the mature cultures and the defect
same,"pattern of re-growth and cell morphology in the defect, in words","MC3T3-E1 cell monolayers; FGF-2 0.2 ng/ml, PGE2 10 μg/ml",rapid coverage of the defect void
same,relative migration,"MC3T3-E1 cell monolayers; from wound site to migrating edge, 24 hours after injury",5.4±0.5 mm
